This passage reports IC50 results from patent US9556150B2, “Inhibitors of bruton's tyrosine kinase” (Hoffmann-La Roche Inc., priority 2013, dated 2017).

SMILES strings stand for the structures. Where a name gives a salt, the structure may show the parent alone.

Bruton's Tyrosine Kinase (BTK), inactivated state, sequence (Q06187 whole entry): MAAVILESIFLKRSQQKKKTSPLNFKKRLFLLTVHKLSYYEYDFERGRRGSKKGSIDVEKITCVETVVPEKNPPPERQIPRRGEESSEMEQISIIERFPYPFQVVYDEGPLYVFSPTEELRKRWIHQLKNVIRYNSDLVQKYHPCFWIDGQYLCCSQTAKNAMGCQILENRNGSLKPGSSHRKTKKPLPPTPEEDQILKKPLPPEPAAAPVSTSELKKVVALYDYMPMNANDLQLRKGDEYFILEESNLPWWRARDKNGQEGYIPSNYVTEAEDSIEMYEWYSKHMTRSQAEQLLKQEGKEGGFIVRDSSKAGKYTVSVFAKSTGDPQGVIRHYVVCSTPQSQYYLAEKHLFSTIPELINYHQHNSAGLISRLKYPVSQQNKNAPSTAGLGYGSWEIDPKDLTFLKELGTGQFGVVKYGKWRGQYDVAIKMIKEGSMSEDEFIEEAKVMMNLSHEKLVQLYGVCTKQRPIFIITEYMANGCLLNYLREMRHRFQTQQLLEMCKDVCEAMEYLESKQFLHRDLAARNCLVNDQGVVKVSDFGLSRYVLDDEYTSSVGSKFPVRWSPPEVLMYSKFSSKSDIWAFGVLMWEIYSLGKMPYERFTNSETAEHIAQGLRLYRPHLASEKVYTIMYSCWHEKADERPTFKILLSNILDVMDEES

This test concerns the target Bruton's Tyrosine Kinase (BTK), inactivated state (Homo sapiens (Human), UniProt Q06187). Nature of the test: Bruton's Tyrosine Kinase (BTK) Inhibition TR-FRET (Time Resolved FRET) competition assay. It counts as binding. Conditions: TR-FRET competition with Kinase Tracer 178, BTK-Eu complex, 18-24 h at 14° C. As to the method: Bruton's Tyrosine Kinase (BTK) Inhibition TR-FRET (Time Resolved FRET) Assay
This BTK competition assay measures compound potency (IC50) for the inactivated state of Bruton's Tyrosine Kinase using FRET (Förster/Fluorescence Resonance Energy Transfer) technology. The BTK-Eu complex was incubated on ice one hour prior to use at a starting concentration of 50 nM BTK-Bioease™: 10 nM Eu-streptavidin (Perkin-Elmer Catalog#AD0062). The assay buffer consisted of 20 mM HEPES (pH 7.15), 0.1 mM DTT, 10 mM MgCl2, 0.5 mg/ml BSA with 3% Kinase Stabilizer (Fremont Biosolutions, Catalog #STB-K02). After 1 h, the reaction mixture from above was diluted 10 fold in assay buffer to make 5 nM BTK: 1 nM Eu-Streptavidin complex (donor fluorophore). 18 μl of a mixture of 0.11 nM BTK-Eu and 0.11 nM Kinase Tracer 178 (Invitrogen, Catalog #PV5593,) with BTK-Eu alone as no negative control, was then dispensed into 384-well flat bottom plates (Greiner, 784076). Compounds to be tested in assay were prepared as 10× concentrations and serial dilution in half-log increments was performed in DMSO so as to generate 10 point curves. To initiate the FRET reaction, compounds prepared as 10× stock in DMSO was added to the plates and the plates were incubated 18-24 h at 14° C.
After the incubation the plates were read on a BMG Pherastar Fluorescent plate reader (or equivalent) and used to measure the emission energy from the europium donor fluorophore (620 nm emission) and the FRET (665 nm emission). The negative control well values were averaged to obtain the mean minimum. The positive “no inhibitor” control wells were averaged to obtain the mean maximum. Percent of maximal FRET was calculated using following equation: % max FRET=100×[(FSR cmpd−FSR mean min)/(FSR mean max−FSR mean min)]
where FSR=FRET Signal ratio. % Max FRET curves were plotted in Activity Base (Excel) and the IC50(%), hill slope, z′ and % CV were determined. The mean IC50 and standard deviation will be derived from duplicate curves (singlet inhibition curves from two independent dilutions) using Microsoft Excel.
Representative compound data for this assay are listed below in Table II.
(In general: In TR-FRET formats the signal depends on donor and acceptor labels being close together.)
For the compound `CN(C)C(=O)c1ccccc1Oc1ccc(-n2ncc(C(=O)c3cc4cc(C(=O)N5CCC(N(C)C(=O)OC(C)(C)C)C5)ccc4[nH]3)c2N)c(Cl)c1` (stereo not shown) [Example I-52, [1-(2-{5-Amino-1-[2-chloro-4-(2-dimethylcarbamoyl-phenoxy)-phenyl]-1Hpyrazole-4-carbonyl}-1H-indole-5-carbonyl)-pyrrolidin-3-yl]-methyl-carbamic acid tert-butyl ester], the IC50 (as a rule, the concentration needed to halve the response being measured) worked out at 17 nM. That is a double-digit nanomolar value.
The value for `CNC1CCN(C(=O)c2ccc3[nH]c(C(=O)c4cnn(-c5ccc(Oc6ccccc6C(=O)N(C)C)cc5Cl)c4N)cc3c2)C1` (stereo not shown) [Example I-53, acetic acid salt] was 1.7 nM; that for `CN(C)C(=O)c1ccccc1Oc1ccc(-n2ncc(C(=O)c3cc4cc(C(=O)NCCN(C)C(=O)OC(C)(C)C)ccc4[nH]3)c2N)c(Cl)c1` [Example I-55, {2-[(2-{5-Amino-1-[2-chloro-4-(2-dimethylcarbamoyl-phenoxy)-phenyl]-1H-pyrazole-4-carbonyl}-1H-indole-5-carbonyl)-amino]-ethyl}-methyl-carbamic acid tert-butyl ester] was 5.1 nM.
The compound `CNCCNC(=O)c1ccc2[nH]c(C(=O)c3cnn(-c4ccc(Oc5ccccc5C(=O)N(C)C)cc4Cl)c3N)cc2c1` [Example I-56, 2-{5-Amino-1-[2-chloro-4-(2-dimethylcarbamoyl-phenoxy)-phenyl]-1H-pyrazole-4-carbonyl}-1H-indole-5-carboxylic acid (2-methylamino-ethyl)-amideacetic acid salt] yielded an IC50 of 3.1 nM. Compared with the last compound, the IC50 is about 1.6-fold lower.
`CN(C)C(=O)c1ccccc1Oc1ccc(-n2ncc(C(=O)c3cc4cc(C(=O)N5CCOCC5)ccc4[nH]3)c2N)c(Cl)c1` [Example I-57, 2-(4-{5-Amino-4-[5-(morpholine-4-carbonyl)-1H-indole-2-carbonyl]-pyrazol-1-yl}-3-chloro-phenoxy)-N,N-dimethyl-benzamide] returned an IC50 of 3.3 nM.
`CNC1CCN(C(=O)c2ccc3[nH]c(C(=O)c4cnn(-c5ccc(Oc6ccccc6C(=O)N(C)C)cc5Cl)c4N)cc3c2)CC1` [Example I-58, 2-(4-{5-Amino-4-[5-(4-methylamino-piperidine-1-carbonyl)-1H-indole-2-carbonyl]-pyrazol-1-yl}-3-chloro-phenoxy)-N,N-dimethyl-benzamide]: the IC50 amounted to 2.1 nM.
The value for `CN(C)C(=O)c1ccccc1Oc1ccc(-n2ncc(C(=O)c3cc4cc(C(=O)O)ccc4[nH]3)c2N)c(Cl)c1` [Example I-59, 2-{5-Amino-1-[2-chloro-4-(2-dimethylcarbamoyl-phenoxy)-phenyl]-1H-pyrazole-4-carbonyl}-1H-indole-5-carboxylic acid] was 12 nM.
